Assay results taken from patent publication EP4741395A1, “NOVEL COMPOUND SENSITIVE TO NITROGEN MONOXIDE AND PHARMACEUTICAL COMPOSITION COMPRISING SAME” (Omniamed Co. Ltd, priority 2023, dated 2025).

How the values were obtained:
[1] = Efficacy on DSS induced ulcerative colitis (disease activity index); assay type: in vivo, mice
Description: In order to establish an ulcerative colitis model, 2.5% DSS powder was mixed with drinking water and provided ad libitum. The DSS powder-containing drinking water was supplied for 5 to 6 days of disease induction period, and after that, normal drinking water was supplied.
The administered compounds of Table 21 were administered orally once daily. Hematochezia, diarrhea and body weight loss were scored according to the criteria shown in the following Table 22, and the scores were summed to calculate a disease activity index (DAI), which is shown in FIG. 4.
Efficacy of Compound (4) on ulcerative colitis was verified in the same manner as in Experimental Example 10-1, except that Compound (4) was used instead of Compound (1), and DSS was administered until day 5, and the drug was administered from day 6.

[2] = system: splenocytes; assay: NO scavenging activity in Concanavalin A-treated splenocytes (Griess assay); assay type: cell-based, C57BL/6 mouse; conditions: Mus musculus, Splenocyte, Concanavalin A 5 µg/mL, 72 hours, read-out: NO Scavenging Activity (%) (Mean±SD)
Outline: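 Splenocytes from 8-week-old C57BL/6 mice at 5×10^6 cells/mL in RPMI 1640/10% FBS, stimulated with Concanavalin A (5 µg/mL) plus […] test composition added at plating. After 72 h culture, remaining NO in supernatant measured by Griess assay.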

[3] = system: IFN-γ; assay: IFN-γ reduction activity in Concanavalin A-treated splenocytes (quantitative ELISA); assay type: cell-based, C57BL/6 mouse; conditions: Mus musculus, Splenocyte, Concanavalin A 5 µg/mL, 72 hours, read-out: IFN-γ Reduction Activity (%) (Mean±SD)
Outline: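 Splenocytes from 8-week-old C57BL/6 mice at 5×10^6 cells/mL in RPMI 1640 with 10% FBS, stimulated with Concanavalin A (5 µg/mL) plus compound added concentration-dependently. Supernatant IFN-γ measured by quantitative ELISA after 72 h.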

[4] = HPLC analysis of nitrogen monoxide sensitivity (release of the low-molecular-weight compound); assay type: physicochemical; conditions: NaNO2 / sulfuric acid, 1 hour, room temperature; FIGS. 2A to 2C
Description: It was checked whether the pharmaceutical composition sensitive to nitrogen monoxide including the compound according to each of the Examples is capable of releasing a low-molecular-weight compound having pharmaceutical activity by separating a nitrogen monoxide scavenger in an environment where nitrogen monoxide is present.
A sample for HPLC analysis was prepared as follows. 28 mg of NaNO2 (0.41 mmol, 16.4 equiv) was dissolved in 0.3 mL of water, and then the mixture solution was cooled to 0°C to 5°C. After introducing 0.2 mL of sulfuric acid (0.1 mmol, 4 equiv) to the mixture solution, 12.2 mg of Compound (4) (0.025 mmol, 1 equiv), which was prepared in Example 4, dissolved in 0.2 mL of acetone was introduced thereto. The mixture solution was stirred for 1 hour at room temperature. After the reaction was finished, water and dichloromethane were introduced to the reaction solution for extraction. The organic layer was separated, then dried with magnesium sulfate, and filtered. […]
Specifically, referring to FIG. 2A, the peak of Compound (4) of Example 4, which is the pharmaceutical composition sensitive to nitrogen monoxide, was detected at 14.2 minutes. On the other hand, referring to FIG. 2B, the peak of Compound (4) disappeared in an environment where excess nitrogen monoxide is present, and a peak detected at 7.7 minutes was generated.

[5] = system: splenocytes; assay: Inhibitory activity on cell proliferation in splenocytes (CCK-8 analysis); assay type: cell-based, C57BL/6 mouse; conditions: Mus musculus, Splenocyte, Concanavalin A 5 µg/mL, 72 hours, read-out: Inhibitory Activity on Cell Proliferation (%) (Mean±SD)
[6] = system: Raw 264.7 cell line; assay: NO scavenging activity in LPS-treated immune cells (Griess reagent); assay type: cell-based; conditions: Mus musculus, RAW264.7, Raw 264.7, LPS 500 ng/mL, 24 hours, read-out: NO Scavenging Activity (%) (Mean±SD)
[7] = Hematological toxicity evaluation after single oral administration (routine blood test)
[8] = in vivo; conditions: male, C57BL/6, mouse, in vivo, po
Description: Specifically, the experimental animals were twelve six-week-old C57BL/6 male mice. The experimental animals were housed in polycarbonate cages in groups of four, and had free access to food and water. The animal housing room was maintained at a temperature of 20±1°C and humidity of about 50±5%, with a constant 12-hour light/dark cycle. The experimental animals were acclimated to the animal room environment for one week, and then randomly divided into three groups of four animals each based on body weight.

[9] = Efficacy on collagen-induced rheumatoid arthritis (arthritis score); assay type: in vivo, DBA/1 male mice
Description: (§1) The experimental animals were 30 8-week-old DBA/1 male mice. […] The number of normal mice was set to five in order to minimize the number of experimental animals. The group administered with Compound (1) consisted of 5 to 6 mice, a minimal number required to obtain statistically meaningful data given the limited amount of the drug.
(§2) In order to establish a rheumatoid arthritis model, 100 µL of a mixture solution in which 2 mg/mL of chick type II collagen and 1 mg/mL of Complete Freund's Adjuvant (CFA) were mixed in a ratio of 1:1 was administered intradermally to each of the mouse tails. After 19 days, 100 µL of an emulsion in which 2 mg/mL of chick type II collagen and Incomplete Freund's Adjuvant (IFA) were mixed in a ratio of 1:1 was administered intradermally to each of the mouse tails.
The test substances of Table 23 were administered orally every day according to the drug dosing period and dosing frequency. As for the rheumatoid arthritis score (arthritis score), the score of each of the four paws was quantified according to the criteria shown in the following Table 24, and the individual scores were summed to generate the final score.
as §1, with “31” for “30”, “(11)” for “(1)”, “5” for “5 to 6”, “drug. Each of the remaining groups consisted of 7 mice, with two extra mice added to account for experimental error.” for “drug.”
as §2
Oral administration was conducted daily according to the dose, dosing frequency and dosing period of Table 25. Based on the criteria shown in Table 24, rheumatoid arthritis score for the four paws were quantified and summed to generate the score.

[10] = mouse, in vivo, po, 800 mg/kg
[11] = 200 mg/kg single oral dose, mice, two days after administration
[12] = 800 mg/kg single oral dose, mice, two days after administration

Structure (SMILES)	efficacy in alleviating ulcerative colitis compared to tofacitinib ([1]; 25 mg/kg oral once daily, FIGS. 4 and 5)	efficacy on disease activity index (DAI) ([1]; DSS until day 5, drug from day 6, day 9 of the test, FIG. 5)	activity at 10 µM [2] [%]	activity at 10 µM [3] [%]	release of the low-molecular-weight compound in the presence of excess nitrogen monoxide (HPLC) [4]	inhibition at 10 µM [5] [%]	activity at 10 µM [6] [%]	hematological toxicity responses ([7]; single oral dose 200 mg/kg and 800 mg/kg, compared with the normal group)	MTD at 4 days [8] [mg/kg]	rheumatoid arthritis-alleviating efficacy (arthritis score) ([9]; 10 mg/kg oral twice daily (BID), day 39 (p<0.05) and day 40 (p<0.01), FIG. 7)	rheumatoid arthritis-alleviating efficacy (arthritis score) ([9]; 40 mg/kg oral once daily, from day 33 after disease induction (p<0.01) to the end, FIG. 6)	WBC Differential Counting (LYM) (% of Normal) [7, 11]	WBC Differential Counting (NEU) (% of Normal) [7, 11]	WBC (% of Normal) [7, 12]	WBC Differential Counting (LYM) (% of Normal) [7, 12]	WBC Differential Counting (NEU) (% of Normal) [7, 12]	hematological toxicity [10]
C[C@@H]1CCN(C(=O)CC#N)C[C@@H]1N(C)c1ncnc2c1ccn2C(=O)Nc1ccc(N(C)C)cc1N [Example 4, N-(2-amino-4-(dimethylamino)phenyl)-4-(((3R,4R)-1-(2-cyanoacetyl)-4-methylpiperidin-3-yl)(methyl)amino)-7H-pyrrolo[2,3-d]pyrimidine-7-carboxamide]	comparable or more superior efficacy	statistically significant efficacy was observed	91 ± 0.01	98.9 ± 0.03	reacted with excess nitrogen monoxide to release tofacitinib	79.5 ± 6.67	68.7 ± 0.74	No hematological toxicity responses were observed	–	–	–	–	–	–	–	–	–
C[C@@H]1CCN(C(=O)CC#N)C[C@@H]1N(C)c1ncnc2[nH]ccc12 [Tofacitinib, tofacitinib]	–	–	–	–	–	–	–	–	400	Statistically significant rheumatoid arthritis-alleviating efficacy was observed	statistically significant rheumatoid arthritis-alleviating efficacy was observed	81.1±31.3 % of Normal	68.3±15.7 % of Normal	62.1±4.7 % of Normal	61.2±4.6 % of Normal	56.4±7.9 % of Normal	hematological toxicity was observed
